Here are results for 19 compounds from ChEMBL document CHEMBL1201862, “PubChem BioAssay data set” (2004).

Among the test systems are HOP-18; SNB-78; DLD-1; KM-20L2; RXF 631; M19-MEL; DMS-273; LXFL 529; XF498.
Experiment in all cases: NCI anticancer screen, dose series, 48 h

Molecules are shown by their SMILES.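 In this assay, cells in 96-well plates receive the compound at five concentrations for 48 hours. Endpoints are linearly interpolated between the surrounding concentrations. Abbreviation: GI50, concentration required for 50% inhibition of growth.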 The source made the active and inactive calls. Rule as the data show it: active = GI50 up to about 1.1 µM and inactive = higher.

As for `Cc1cccc2c1c1ccc3c(c1n2C)C(=O)C=CC3=O`, the GI50 in the test with HOP-18 is 10 µM (inactive); in the test with SNB-78, 16.2 µM (inactive); with DLD-1 it was 2.28 µM (inactive); in the test with KM-20L2, 16.2 µM (inactive); with RXF 631, 6.79 µM (inactive); in the test on M19-MEL, 5.33 µM (inactive). Besides, the figures for the GI50 in the test on DMS-273 and with LXFL 529 were 3.11 µM (inactive) and 2.01 µM (inactive), respectively.
Regarding `CC1(C)C=C(N2CCN(C3=CC(C)(C)NC(C)(C)C3)CC2)CC(C)(C)N1`, the GI50 in the test on HOP-18, in the test on XF498, in the test with SNB-78, in the test on DLD-1, with KM-20L2 and with M19-MEL was > 100 µM (inactive) in each case. Further, the GI50 in the test with DMS-273 and with LXFL 529 was > 100 µM (inactive) throughout.
Consider `COc1ccc2c(c1)[n+]([O-])c(C(=O)CC(=O)C(=O)Nc1cccc(C)c1C)c(C)[n+]2[O-]`, for which the GI50 with HOP-18, in the test on XF498, with SNB-78, in the test on DLD-1, in the test with KM-20L2 and in the test on RXF 631 was > 100 µM (inactive) in each case. Besides, the GI50 with M19-MEL and with LXFL 529 was > 100 µM (inactive) each time.
`CCOC(=O)CCC(=O)C1c2cccc(O)c2C(=O)c2c(O)cc(C)cc21` (stereo not given): the GI50 in the test with HOP-18 is 0.515 µM (active); with XF498, 0.211 µM (active); with SNB-78, 0.542 µM (active); in the test on DLD-1 it was 1.21 µM (inactive); with KM-20L2, 1.83 µM (inactive); in the test with RXF 631, 0.771 µM (active). Moreover, the values for the GI50 in the test with M19-MEL, with DMS-273 and in the test on LXFL 529 were 0.637 µM (active), 0.785 µM (active) and 0.643 µM (active), respectively.
For the compound `CC(=O)CC(=O)Nc1ccc(OS(N)(=O)=O)cc1`, the GI50 in the test with HOP-18, in the test on XF498, in the test with SNB-78, in the test with DLD-1, with KM-20L2 and with RXF 631 was > 100 µM (inactive) throughout. Besides, the GI50 in the test on M19-MEL, in the test on DMS-273 and with LXFL 529 was > 100 µM (inactive) in each case.
Take `Cc1ccc(N2C(=O)/C(=C3\Sc4c(nc(C)n(C)c4=O)N3c3ccccc3)SC2=S)cc1`: the GI50 was > 100 µM (inactive) in the test with XF498; 40.8 µM (inactive) in the test on SNB-78; > 100 µM (inactive) with KM-20L2; > 100 µM (inactive) in the test with M19-MEL; 25.2 µM (inactive) in the test on DMS-273; 68.7 µM (inactive) in the test with LXFL 529.
On to `CC1COC(C)(C)P(=O)(c2ccccc2)C1` (stereo not given), for which the GI50 in the test with HOP-18, with XF498, in the test with SNB-78, with DLD-1, in the test with KM-20L2 and in the test with M19-MEL was > 100 µM (inactive) each time. Also, the GI50 with DMS-273 and with LXFL 529 was > 100 µM (inactive) each time.
With `C[C@]12CC[C@H](O)CC1=CC[C@@H]1C2CC[C@]2(C)C(=O)NC(=O)CC12` (stereo not given in full), the GI50 in the test with HOP-18 is > 100 µM (inactive); in the test with XF498 it was > 100 µM (inactive); in the test on SNB-78, > 100 µM (inactive); in the test on DLD-1, 44.6 µM (inactive); with KM-20L2, > 100 µM (inactive); in the test with RXF 631 it was 76.7 µM (inactive). In addition, the GI50 in the test with M19-MEL was > 100 µM (inactive); in the test with DMS-273 it was 56.9 µM (inactive); with LXFL 529, 74.3 µM (inactive).
On to `C=C(c1ccccc1)[C@@]1(O)CCCC[C@H]1NC(c1ccccc1)c1ccccc1`, for which the GI50 was 19.9 µM (inactive) in the test with HOP-18; 19.7 µM (inactive) with SNB-78; 14.6 µM (inactive) in the test on DLD-1; 13.8 µM (inactive) in the test on KM-20L2; 15 µM (inactive) in the test with M19-MEL; 13.1 µM (inactive) in the test with DMS-273. Besides, the GI50 with LXFL 529 was 11.1 µM (inactive).
`CCOC(=O)/C(=C\c1ccc(OCc2ccccc2)c(OC)c1)C(=O)c1ccccc1`: the GI50 was 18.1 µM (inactive) in the test with XF498, 31.3 µM (inactive) in the test with SNB-78, 19.5 µM (inactive) with KM-20L2 and 22.1 µM (inactive) in the test on M19-MEL.
For the compound `COc1ccc(Cn2c(C)nc3c2C(=O)c2ccccc2C3=O)cc1`, the GI50 in the test with XF498 is 11.7 µM (inactive); in the test on SNB-78, 16.1 µM (inactive); in the test with DLD-1, 4.67 µM (inactive); in the test on KM-20L2, 11.6 µM (inactive); with M19-MEL it was 7.91 µM (inactive); with DMS-273 it was 3.32 µM (inactive). Further, the GI50 in the test on LXFL 529 was 4.31 µM (inactive).
Regarding `CC(=O)OCc1c2ccccc2c(C)c2c1cc(F)c1ccccc12`, the GI50 is 24.6 µM (inactive) in the test on HOP-18; 16.6 µM (inactive) in the test with XF498; 14.3 µM (inactive) in the test with SNB-78; 14.8 µM (inactive) in the test with DLD-1; 28.8 µM (inactive) with KM-20L2; 25.8 µM (inactive) in the test with RXF 631. For the same compound, the values for the GI50 in the test on DMS-273 and with LXFL 529 were 10.4 µM (inactive) and 29.6 µM (inactive), respectively.
For `CC(=S)NNC(=O)c1ccncc1`, the GI50 in the test on HOP-18, with XF498, in the test on SNB-78, with DLD-1, in the test on KM-20L2 and in the test on M19-MEL was > 100 µM (inactive) in each case. Further, the GI50 in the test with DMS-273 and in the test with LXFL 529 was > 100 µM (inactive) throughout.
For `COc1ccc(CCNCc2cccc(OC)c2OC)cc1OC`, the GI50 with XF498, with SNB-78, in the test on DLD-1, in the test on KM-20L2, with RXF 631 and in the test with M19-MEL was > 100 µM (inactive) in each case. In addition, the GI50 in the test with DMS-273 and in the test with LXFL 529 was > 100 µM (inactive) in each case.
As to `COC(=O)C1=C(c2cc(OC)c(OC)c(OC)c2)OC(c2cc(OC)c(OC)c(OC)c2)C1` (stereo not given), the GI50 is 19.5 µM (inactive) in the test on HOP-18; 24.4 µM (inactive) in the test on XF498; 51.8 µM (inactive) in the test with SNB-78; 21.9 µM (inactive) in the test with DLD-1; 22.5 µM (inactive) with KM-20L2; 26.7 µM (inactive) with M19-MEL. In addition, the figures for the GI50 in the test on DMS-273 and with LXFL 529 were 22.5 µM (inactive) and 22.4 µM (inactive), respectively.
Consider `CC(=O)C(CN(C(C)C)C(C)C)C(c1ccccc1)c1c(O)c2ccccc2oc1=O` (stereo not given), for which the GI50 is > 100 µM (inactive) with HOP-18; 97.1 µM (inactive) in the test on SNB-78; > 100 µM (inactive) in the test on DLD-1; > 100 µM (inactive) with KM-20L2; > 100 µM (inactive) in the test on RXF 631; > 100 µM (inactive) in the test with M19-MEL. Moreover, the GI50 in the test on DMS-273 and in the test with LXFL 529 was > 100 µM (inactive) each time.
As for `COc1cc(/C=C2\[C@@H]3NC(Cc4c(OC)c(C)c(OC)c(OC)c43)C(=O)N2Cc2ccccc2)c(OC)c(C)c1OC`, the GI50 was 43.8 µM (inactive) in the test on HOP-18; 45.4 µM (inactive) in the test with DLD-1; 37.8 µM (inactive) in the test with KM-20L2; 53.7 µM (inactive) in the test on RXF 631; 28.5 µM (inactive) in the test on M19-MEL; 27.9 µM (inactive) with DMS-273. In addition, in the test on LXFL 529, the GI50 is 37.5 µM (inactive).
As for `CC(CC[C@@H](C)C1CCC2[C@@H]3CC(O)C4CC(O)[C@@H](O)C[C@]4(C)C3CC[C@@]21C)C(C)(C)C` (stereo not given in full), the GI50 in the test with HOP-18, in the test with XF498, in the test with SNB-78, with DLD-1, in the test on KM-20L2 and in the test with M19-MEL was > 100 µM (inactive) throughout. For the same compound, the GI50 in the test with DMS-273 and in the test with LXFL 529 was > 100 µM (inactive) in each case.
On to `COc1c(CC=C(C)C)c(O)c(C(CC(C)C)c2c(O)c(CC=C(C)C)c(O)c(C(C)=O)c2O)c(O)c1C(C)=O` (stereo not given), for which the GI50 is 0.551 µM (active) in the test with HOP-18; 0.596 µM (active) with XF498; 1.7 µM (inactive) in the test on SNB-78; 0.38 µM (active) with DLD-1; 0.425 µM (active) in the test on RXF 631; 1.43 µM (inactive) in the test on M19-MEL. In the test on DMS-273, the GI50 was 0.333 µM (active).
